Like-named read-outs stand apart in the source and are kept apart here.
Key:
Type in all cases: cell-based
[1] = tested on: NF-κB; assay: Test for an Activity of Inhibiting NF-κB Activation (gel shift assay, UVB-irradiated human epidermal cells); conditions: light or radiation study, read-out: inhibitory rate (%) of NF-κB activation; for inhibition at 1000 µM: concentration 1 mM; for inhibition at 2000 µM: concentration 2 mM; for inhibition at 10 µM: concentration 10 μM; for inhibition at 50 µM: concentration 50 μM
Method: Test for an Activity of Inhibiting NF-κB Activation
(§1) Eighteen hours later, the culture solution was replaced with a phenol red-free medium. The cells were subjected to UV irradiation (UVB: 50 mJ/m^2)using Dermaray M-DMR-80 (supplied by Toshiba Iryo Yohin KK). After from 4 to 5 hours passed, the cells were recovered, and the nucleoproteins were extracted in a usual manner. With respect to the resulting nucleoproteins, NF-κB activated by gel shift assay was detected. The amount of NF-κB was determined by measuring a radioactivity of an NF-κB band using a bio-imaging analyzer BAS 2000 (supplied by Fuji Photo Film). The rate of inhibition of NF-κB activation on the test compound was calculated using formula (III).
Rate (%) of inhibition of NF-κB activation={1−(A1−A3)/(A2−A3)}×100 (III)
A1: radioactivity of an NF-κB band in the addition of the test compound
A2: radioactivity of an NF-κB band in the non-addition of the test compound
A3: radioactivity of an NF-κB band when the test compound was not added, nor was UV irradiation conducted

[2] = tested on: IL-1α; assay: Test for an Activity of Inhibiting IL-1α Expression (ELISA, UVB-irradiated human epidermal cells); conditions: light or radiation study, 24 h, read-out: inhibitory rate (%) of IL-1α expression; for inhibition at 10000 µM: concentration 10 mM; for inhibition at 500 µM: concentration 0.5 mM; for inhibition at 1000 µM: concentration 1 mM; for inhibition at 10 µM: concentration 10 μM; for inhibition at 20 µM: concentration 20 μM; for inhibition at 50 µM: concentration 50 μM
Method: Test for an Activity of Inhibiting IL-1α Expression
(§2) The test compound was added to human epidermal cells which had become confluent in a culture plate. Eighteen hours later, the culture solution was replaced with a phenol red-free medium. The cells were subjected to UV irradiation (UVB: 50 mJ/cm^2) using Dermaray M-DMR-80 (supplied by Toshiba Iryo Yohin KK). After 24 hours passed, the culture solution was recovered, and the IL-1α concentration in the culture solution was measured using IL-1α·ELISA System (supplied by Amersham Corp.). The rate of inhibition of IL-1α expression on the test compound was calculated using formula (V).
Rate (%) of inhibition of IL-1α expression={1−(B1−B3)/(B2−B3)}×100 (V)
B1: IL-1α concentration in the addition of the test compound
B2: IL-1α concentration in the non-addition of the test compound
B3: IL-1α concentration when the test compound was not added, nor was UV irradiation conducted

[3] = tested on: AP-1; assay: Test for an Activity of Inhibiting AP-1 Activation (gel shift assay, UVA-irradiated human dermal fibroblasts); conditions: AP1, light or radiation study, read-out: inhibitory rate (%) of AP-1 activation; for inhibition at 1 µM: concentration 1 μM; for inhibition at 500 µM: concentration 0.5 mM
Method: Test for an Activity of Inhibiting AP-1 Activation
as §1, with “The test compound was added to human dermal fibroblasts which had become confluent in a culture plate. Eighteen” for “Eighteen”, “(UVA: 20 J/cm^2) using” for “(UVB: 50 mJ/m^2)using”, “AP-1” for “NF-κB”, “(IV).” for “(III).”
Rate (%) of inhibition of AP-1 activation={1−(A4−A6)/(A5−A6)}×100 (IV)
A4: radioactivity of an AP-1 band in the addition of the test compound
A5: radioactivity of an AP-1 band in the non-addition of the test compound
A6: radioactivity of an AP-1 band when the test compound was not added, nor was UV irradiation conducted

[4] = tested on: collagenase; assay: Test for an Activity of Inhibiting Collagenase Expression (MMP-1 ELISA, UVA-irradiated human dermal fibroblasts); conditions: Fibroblast, light or radiation study, 24 h, read-out: inhibitory rate (%) of collagenase expression; for inhibition at 10 µM: concentration 10 μM
Method: Test for an Activity of Inhibiting Collagenase Expression
as §2, with “dermal fibroblasts” for “epidermal cells”, “(UVA; 20 J/cm^2)” for “(UVB: 50 mJ/cm^2)”, “collagenase” for “IL-1α”, “MMP-1α·ELISA” for “IL-1α·ELISA”, “(VI).” for “(V).”
Rate (%) of inhibition of collagenase expression={1−(B4−B6)/(B5−B6)}×100 (VI)
B4: collagenase concentration in the addition of the test compound
B5: collagenase concentration in the non-addition of the test compound
B6: collagenase concentration when the test compound was not added, nor was UV irradiation conducted

CCOC(=O)[C@H](CC(C)C)NCc1ccccc1O [N-(2-hydroxybenzyl)-L-leucine ethyl ester]
inhibition at 1000 µM [1]: 84%
inhibition at 2000 µM [1]: 57%

O=C(O)CNCc1ccccc1O [N-(2-hydroxybenzyl)glycine]
inhibition at 5000 µM ([1]; concentration 5 mM): 36%
inhibition at 5000 µM ([2]; concentration 5 mM): 26%
inhibition at 10000 µM [2]: 88%

CCOC(=O)[C@H](Cc1ccc(O)cc1)NCc1ccccc1O [N-(2-hydroxybenzyl)-L-tyrosine ethyl ester]
inhibition at 100 µM ([1]; concentration 0.1 mM): 64%
inhibition at 500 µM ([1]; concentration 0.5 mM): 81%

CCOC(=O)[C@H](Cc1ccccc1)NCc1ccccc1O [N-(2-hydroxybenzyl)-L-phenylalanine ethyl ester]
inhibition at 100 µM ([2]; concentration 0.1 mM): 25%

CCNC(=O)[C@H](C)NCc1ccccc1O [N-(2-hydroxybenzyl)-L-alanine ethyl amide]
inhibition at 1000 µM [1]: 43%
inhibition at 2000 µM [1]: 26%
inhibition at 1000 µM ([3]; concentration 1 mM): 52%
inhibition at 2000 µM ([3]; concentration 2 mM): 131%
inhibition at 500 µM [2]: 81%
inhibition at 1000 µM [2]: 99%

CCOC(=O)[C@H](CCCNC(=N)N)NCc1ccccc1O [N-(2-hydroxybenzyl)-L-arginine ethyl ester]
inhibition at 500 µM [2]: 65%

O=C(O)[C@H](CO)NCc1ccccc1O [N-(2-hydroxybenzyl)-L-serine]
inhibition at 10000 µM ([1]; concentration 10 mM): 17%
inhibition at 30000 µM ([1]; concentration 30 mM): 34%
inhibition at 10000 µM [2]: 62%
inhibition at 30000 µM ([2]; concentration 30 mM): 70%

S=C(S)N1CCCC1 [pyrrolidinedithiocarbamate, reference compound]
inhibition at 5 µM ([1]; concentration 5 μM): -9%
inhibition at 10 µM [1]: 9%
inhibition at 5 µM ([2]; concentration 5 μM): -45%

CCOC(=O)[C@@H]1CCC(=O)N1Cc1ccccc1O [N-(2-hydroxybenzyl)-L-pyroglutamic acid ethyl ester]
inhibition at 1000 µM [1]: 53%
inhibition at 2000 µM [1]: 85%
inhibition at 500 µM [2]: 84%
inhibition at 1000 µM [2]: 55%

CCCCCCCCCCCCOC(=O)[C@H](CO)NCc1ccccc1O [N-(2-hydroxybenzyl)-L-serine lauryl ester]
inhibition at 50 µM [1]: 79%
inhibition at 1 µM [3]: 43%
inhibition at 10 µM ([3]; concentration 10 μM): 49%
inhibition at 10 µM [2]: 12%
inhibition at 100 µM ([2]; concentration 100 μM): 31%

CC(C)OC(=O)[C@H](C)NCc1ccccc1O [N-(2-hydroxybenzyl)-L-alanine isopropyl ester]
inhibition at 100 µM ([3]; concentration 0.1 mM): 20%
inhibition at 500 µM [3]: 35%
inhibition at 100 µM ([2]; concentration 0.1 mM): 36%
inhibition at 1000 µM [2]: 53%

CCNC(=O)[C@H](Cc1ccc(O)cc1)NCc1ccccc1O [N-(2-hydroxybenzyl)-L-tyrosine ethyl amide]
inhibition at 1000 µM [1]: 72%
inhibition at 2000 µM [1]: 28%

CCCCCCCCCCCCOC(=O)[C@H](CCCNC(=N)N)NCc1ccccc1O [N-(2-hydroxybenzyl)-L-arginine lauryl ester]
inhibition at 10 µM [4]: 52%

CCCCCCCCCCCCNC(=O)CNCc1ccccc1O [N-(2-hydroxybenzyl)glycine lauryl amide]
inhibition at 20 µM [2]: 13%
inhibition at 50 µM [2]: 45%

CCCCCCCCCCCCOC(=O)[C@@H](C)NCc1ccccc1O [N-(2-hydroxybenzyl)-D-alanine lauryl ester]
inhibition at 50 µM [1]: 60%
inhibition at 100 µM ([1]; concentration 100 μM): 59%
inhibition at 10 µM [2]: 35%
inhibition at 50 µM [2]: 31%

CCOC(=O)CNCc1ccccc1O [N-(2-hydroxybenzyl)glycine ethyl ester]
inhibition at 10 µM [4]: 39%
inhibition at 100 µM ([4]; concentration 100 μM): 46%

CCOC(=O)[C@H](C)NCc1ccccc1O [N-(2-hydroxybenzyl)-L-alanine ethyl ester]
inhibition at 200 µM ([1]; concentration 0.2 mM): 68%
inhibition at 2000 µM [1]: 77%
inhibition at 500 µM [3]: 26%
inhibition at 200 µM ([2]; concentration 0.2 mM): 61%
inhibition at 2000 µM ([2]; concentration 2 mM): 100%

CCCCCCCCCCCCOC(=O)[C@H](CC(C)C)NCc1ccccc1O [N-(2-hydroxybenzyl)-L-leucine lauryl ester]
inhibition at 10 µM [1]: 21%
inhibition at 20 µM ([1]; concentration 20 μM): 23%
inhibition at 10 µM [4]: 21%

CCOC(=O)[C@@H](C)NCc1ccccc1O [N-(2-hydroxybenzyl)-D-alanine ethyl ester]
inhibition at 1000 µM [1]: 90%
inhibition at 2000 µM [1]: 87%
inhibition at 500 µM ([4]; concentration 0.5 mM): 108%

CCCCCCCCCCCCNC(=O)[C@H](CCCNC(=N)N)NCc1ccccc1O [N-(2-hydroxybenzyl)-L-arginine lauryl amide]
inhibition at 10 µM [1]: 16%
inhibition at 50 µM [1]: 28%

C[C@H](NCc1ccccc1O)C(=O)O [N-(2-hydroxybenzyl)-L-alanine]
inhibition at 1000 µM [1]: 20%
inhibition at 1 µM ([2]; concentration 1 μM): 14%
inhibition at 10 µM [2]: 100%

CCCCCCCCCCCCNC(=O)[C@@H](C)NCc1ccccc1O [N-(2-hydroxybenzyl)-D-alanine lauryl amide]
inhibition at 10 µM [1]: 29%
inhibition at 50 µM [1]: 97%
inhibition at 1 µM [3]: 14%
inhibition at 20 µM ([3]; concentration 20 μM): 31%
inhibition at 20 µM [2]: 25%
inhibition at 50 µM [2]: 79%

Reference: patent US6552061B1, “Amino acid derivatives and anti-inflammatory agents” (Ajinomoto Co., Inc., priority 1998, dated 2003)
